Data taken from patent publication US5527820A, “Antibiotics having immunosuppressive activity, delaminomycins and processes for the production of the same” (priority 1992, dated 1996).
≈ marks a conversion by molar mass, not a printed value.

What was measured:
[1] = system: Candida tropicalis F-1; assay: MIC, agar plate dilution method; format: cell-based; conditions: F1, 27° C., 42 hours, nutrient agar containing glucose
[2] = system: Mouse leukemia EL-4; assay: Inhibitory activity on proliferation of cancer cells; format: cell-based; conditions: EL4
[3] = system: Trichophyton mentagrophytes F-15 (833); assay: MIC, agar plate dilution method; format: cell-based; conditions: 27° C., 42 hours, nutrient agar containing glucose
[4] = Acute toxicity (LD50) in ICR mice; conditions: mouse, in vivo, ip, intraperitoneally
[5] = Solubility; conditions: result in words; for Solubility: various solvents
[6] = system: Pellicularia sasakii; assay: MIC, agar plate dilution method; format: cell-based; conditions: 27° C., 42 hours, nutrient agar containing glucose
[7] = system: Human Lymphoma Jurkat; assay: Inhibitory activity on proliferation of cancer cells; format: cell-based
[8] = system: delayed-type hypersensitivity (DTH); assay: Suppressive effect on delayed-type hypersensitivity (DTH) in mouse, intraperitoneal; format: in vivo, mouse (CDF1); conditions: intraperitoneal once a day, 0-4th day
Description: Suppressive effect of delaminomycins on delayed-type hypersensitivity (DTH) in mouse
CDF1 mice were immunized by intravenously injecting sheep red blood cells (10^5 cells/mouse). On the 4th day after the immunization, sheep red blood cells (10^8 cells/mouse) were subcutaneously injected into the footpad of mice for the elicitation to cause a delayed-type hypersensitivity (DTH). Test compound was intraperitoneally administered to the mice once a day from the 0th day to 4th day after the immunization. On the 5th day after the elicitation the thickness of the mouse footpad was measured to estimate the suppressive effect of the test compound on the DTH response. The suppressive effect of the test compound was evaluated in terms of the inhibition rate (%) as calculated according to the following equation:
(§1) Inhibition rate (%)=100-(T/C×100)
wherein T denotes the thickness of the footpad when administering the test compound, but C denotes the thickness of the footpad when administering no test compound.

[9] = system: Candida albicans 3147; assay: MIC, agar plate dilution method; format: cell-based; conditions: 27° C., 42 hours, nutrient agar containing glucose
[10] = system: Candida pseudotropicalis F-2; assay: MIC, agar plate dilution method; format: cell-based; conditions: Kluyveromyces marxianus, F2; 27° C., 42 hours, nutrient agar containing glucose
[11] = system: Xanthomonas citri; assay: MIC, agar plate dilution method; format: cell-based; conditions: 27° C., 42 hours, nutrient agar containing glucose
Procedure: (§2) Delaminomycins A, B, C, A2, B2 and C2 according to this invention further have an antibacterial activity against a variety of bacteria. The minimum growth inhibitory concentrations (MIC) (μg/ml) of the novel antibiotics of this invention on various bacteria and fungi as measured by the agar plate dilution method are shown in Table 5a, Table 5b, Table 5c and Table 5d below.
(§3) Evaluated after culturing at 27° C. for 42 hours in nutrient agar
(§4) medium containing glucose.

[12] = system: Cochliobolus miyabeanus; assay: MIC, agar plate dilution method; format: cell-based; conditions: Bipolaris oryzae; 27° C., 42 hours, nutrient agar containing glucose
Procedure: as §2, §3, §4

[13] = system: Piricularia oryzae; assay: microbe, parasite or virus in culture; format: cell-based; conditions: 42 h
[14] = system: Gram-positive bacteria; assay: Antibacterial activity to Gram-positive bacteria; format: cell-based; conditions: result in words
Description: as §2

[15] = system: Aspergillus niger F-16; assay: MIC, agar plate dilution method; format: cell-based; conditions: F16, 27° C., 42 hours, nutrient agar containing glucose
[16] = system: Mouse leukemia L-1210; assay: Inhibitory activity on proliferation of cancer cells; format: cell-based; conditions: L1210
[17] = system: Candida krusei F-5; assay: MIC, agar plate dilution method; format: cell-based; conditions: Pichia kudriavzevii, F5; 27° C., 42 hours, nutrient agar containing glucose
[18] = system: spleen cells (T cells activated by Concanavalin A); assay: Inhibitory activity against blastogenesis and proliferation of spleen cells caused by mitogen (Con A); format: cell-based, mouse (CDF1); conditions: for IC50: read-out: IC50 (inhibition of blastogenesis and proliferation of spleen lymphocyte caused by Con A); for activity inhibitory to the reaction of proliferation of mouse spleen cells activated with Concanavalin A: in vitro, result in words
[19] = Absorption into the digestive tracts on oral administration; conditions: result in words
[20] = system: Cryptococcus neoformans F-10; assay: MIC, agar plate dilution method; format: cell-based; conditions: F10, 27° C., 42 hours, nutrient agar containing glucose
[21] = system: Candida Yu-1200; assay: MIC, agar plate dilution method; format: cell-based; conditions: YU1200, 27° C., 42 hours, nutrient agar containing glucose
[22] = system: Mouse leukemia P388D1; assay: Inhibitory activity on proliferation of cancer cells; format: cell-based
[23] = system: Saccharomyces cerevisiae F-7; assay: MIC, agar plate dilution method; format: cell-based; conditions: F7, 27° C., 42 hours, nutrient agar containing glucose
[24] = system: Mouse melanoma B-16; assay: Inhibitory activity on proliferation of cancer cells; format: cell-based; conditions: B16
[25] = system: nylon wool-passed cells of spleen cells (responder cell; T cells); assay: Inhibitory activity to the mixed lymphocyte culture reaction; format: cell-based, rat (Fischer F344 responder; WKY stimulator); conditions: for IC50: 120 hours, 3H-thymidine incorporation, read-out: IC50 (inhibition of mixed lymphocyte culture reaction); for activity to inhibit the proliferation of the T cells (responder cell) in mixed lymphocyte culture reaction: in vitro, result in words
[26] = system: Trichophyton asteroides 429; assay: MIC, agar plate dilution method; format: cell-based; conditions: 27° C., 42 hours, nutrient agar containing glucose
[27] = system: delayed-type hypersensitivity (DTH); assay: Suppressive effect on delayed-type hypersensitivity (DTH) in mouse, oral; format: in vivo, mouse (CDF1); conditions: 2.0 mg/mouse, oral once a day, 0~4th day
Procedure: CDF1 mice were immunized by intravenously injecting sheep red blood cells (10^5 cells/mouse). On the 4th day after the immunization, sheep red blood cells (10^8 cells/mouse) were subcutaneously injected into the footpad of mice for the elicitation to cause a delayed-type hypersensitivity. Test compound was orally administered to the mice once a day from the 0 th day to the 4 th day after the immunization. On the 5th day after the elicitation, the thickness of the mouse footpad was measured to estimate the suppressive effect of the test compound on DTH. The suppressive effect of the test compound was evaluated in terms of the inhibition rate (%) as calculated according to the following equation:
as §1
wherein T denotes the thickness of the footpad when the test compound was administered, but C denotes the thickness of the footpad when no test compounnd was administered.

Work on `CCC(O)C(C)/C=C/C=C/C(O)CC1C=CC2CC(C)CC(C)C2C1(C)C(=O)C1C(=O)NC(O)C1=O` (stereo not shown) [Delaminomycin A] yielded an MIC [1] of over 100 µg/mL, an IC50 [2] of 17.9 µg/mL (≈ 35.7 µM) and an MIC [3] of over 100 µg/mL. The LD50 [4] was over 500 mg/kg, the Solubility [5] was “soluble in methanol but slightly soluble or insoluble in water, acetone, ethyl ether and n-hexane” and the Solubility in water [5] was “barely soluble in water”. The MIC [6] was over 100 µg/mL, the IC50 [7] was 3.6 µg/mL (≈ 7.18 µM) and the “Inhibition rate (DTH footpad thickness)” value ([8]; 15.6 μg/mouse) was 0.1%. The “Inhibition rate (DTH footpad thickness)” value ([8]; 62.5 μg/mouse) was 52.8%, the “Inhibition rate (DTH footpad thickness)” value ([8]; 250 μg/mouse) was 85.3% and the “Inhibition rate (DTH footpad thickness)” value ([8]; 1000 μg/mouse) was 99.2%. It also gave an MIC [9] of over 100 µg/mL, an MIC [10] of over 100 µg/mL and an MIC [11] of over 100 µg/mL. For the same compound, the MIC [12] was over 100 µg/mL, the MIC [13] was over 100 µg/mL and the “antibacterial activity to Gram-positive bacteria” value [14] was “antibacterial activity to Gram-positive bacteria”. The MIC [15] was over 100 µg/mL, the IC50 [16] was over 100 µg/mL and the MIC [17] was over 100 µg/mL. The IC50 ([18]; Mus musculus, T-cell) was 17.5 µg/mL (≈ 34.9 µM), the inhibition at 1.56 µg/mL ([18]; Mus musculus, T-cell, 1.56 μg/ml test compound, read-out: Inhibition rate) was 0% and the inhibition at 6.25 µg/mL ([18]; Mus musculus, T-cell, 6.25 μg/ml test compound, read-out: Inhibition rate) was 31%. For the same compound, the inhibition at 25 µg/mL ([18]; Mus musculus, T-cell, 25 μg/ml test compound, read-out: Inhibition rate) was 57%, the inhibition at 100 µg/mL ([18]; Mus musculus, T-cell, 100 μg/ml test compound, read-out: Inhibition rate) was 88% and the “activity inhibitory to the reaction of proliferation of mouse spleen cells activated with Concanavalin A” value [18] was “exhibit an activity inhibitory to the reaction of proliferation of mouse spleen cells”. The “absorption into the digestive tracts / oral absorption” value [19] was “hardly absorbed into the digestive tracts”, the MIC [20] was over 100 µg/mL and the MIC [21] was over 100 µg/mL. The IC50 [22] was 14 µg/mL (≈ 27.9 µM), the MIC [23] was over 100 µg/mL and the IC50 [24] was 21.1 µg/mL (≈ 42.1 µM). The inhibition at 0.1 µg/mL ([25]; Rattus norvegicus, T-cell, 0.10 μg/ml test compound, read-out: Inhibition rate) was 17.6%, the inhibition at 0.39 µg/mL ([25]; Rattus norvegicus, T-cell, 0.39 μg/ml test compound, read-out: Inhibition rate) was 32.8% and the inhibition at 1.56 µg/mL ([25]; Rattus norvegicus, T-cell, 1.56 μg/ml test compound, read-out: Inhibition rate) was 17.5%. The inhibition at 6.25 µg/mL ([25]; Rattus norvegicus, T-cell, 6.25 μg/ml test compound, read-out: Inhibition rate) was 55.3%, the inhibition at 25 µg/mL ([25]; Rattus norvegicus, T-cell, 25 μg/ml test compound, read-out: Inhibition rate) was 95% and the inhibition at 100 µg/mL ([25]; Rattus norvegicus, T-cell, 100 μg/ml test compound, read-out: Inhibition rate) was 96.4%. The IC50 ([25]; Rattus norvegicus, T-cell) was 8.6 µg/mL (≈ 17.1 µM), the “activity to inhibit the proliferation of the T cells (responder cell) in mixed lymphocyte culture reaction” value [25] was “have an activity to inhibit the reaction of proliferation of the T cells” and the MIC [26] was over 100 µg/mL.

Compound `CCC(O)C(C)/C=C/C=C/C1CC2C=CC3CC(C)CC(C)C3C2(C)C(=O)C12C(=O)NC(OC)C2=O` (stereo not shown) [Delaminomycin B2] has an MIC [1] of over 100 µg/mL, an IC50 [2] of 6.8 µg/mL (≈ 13.7 µM) and an MIC [3] of over 100 µg/mL. For the same compound, the Solubility [5] was “soluble in methanol, ethyl acetate, chloroform and ethyl ether but slightly soluble or insoluble in n-hexane and water”, the Solubility in water [5] was “barely soluble in water” and the MIC [6] was over 50 µg/mL. For the same compound, the IC50 [7] was 11.4 µg/mL (≈ 22.9 µM), the “Inhibition rate (DTH footpad thickness)” value ([8]; 15.6 μg/mouse) was -3.3% and the “Inhibition rate (DTH footpad thickness)” value ([8]; 62.5 μg/mouse) was 35.4%. The “Inhibition rate (DTH footpad thickness)” value ([8]; 250 μg/mouse) was 36.2%, the “Inhibition rate (DTH footpad thickness)” value ([8]; 1000 μg/mouse) was 51.3% and the MIC [9] was over 100 µg/mL. It also gave an MIC [10] of over 100 µg/mL, an MIC [11] of over 100 µg/mL and an MIC [12] of over 100 µg/mL. For the same compound, the MIC [13] was over 100 µg/mL, the “antibacterial activity to Gram-positive bacteria” value [14] was “antibacterial activity to Gram-positive bacteria” and the MIC [15] was over 100 µg/mL. The IC50 [16] was 8 µg/mL (≈ 16.1 µM), the “Inhibition rate (DTH footpad thickness)” value [27] was 18.4% and the MIC [17] was over 100 µg/mL. For the same compound, the IC50 ([18]; Mus musculus, T-cell) was 0.85 µg/mL (≈ 1.71 µM), the inhibition at 0.2 µg/mL ([18]; Mus musculus, T-cell, 0.20 μg/ml test compound, read-out: Inhibition rate) was 12.3% and the inhibition at 0.78 µg/mL ([18]; Mus musculus, T-cell, 0.78 μg/ml test compound, read-out: Inhibition rate) was 47.6%. The inhibition at 3.1 µg/mL ([18]; Mus musculus, T-cell, 3.1 μg/ml test compound, read-out: Inhibition rate) was 92.7%, the inhibition at 12.5 µg/mL ([18]; Mus musculus, T-cell, 12.5 μg/ml test compound, read-out: Inhibition rate) was 94.1% and the inhibition at 50 µg/mL ([18]; Mus musculus, T-cell, 50 μg/ml test compound, read-out: Inhibition rate) was 96.7%. For the same compound, the “activity inhibitory to the reaction of proliferation of mouse spleen cells activated with Concanavalin A” value [18] was “exhibit an activity inhibitory to the reaction of proliferation of mouse spleen cells”, the “absorption into the digestive tracts / oral absorption” value [19] was “hardly absorbed into the digestive tracts” and the MIC [20] was over 100 µg/mL. The MIC [21] was over 100 µg/mL, the IC50 [22] was 12.1 µg/mL (≈ 24.3 µM) and the MIC [23] was over 100 µg/mL. For the same compound, the IC50 [24] was 17.9 µg/mL (≈ 36 µM), the inhibition at 0.05 µg/mL ([25]; Rattus norvegicus, T-cell, 0.05 μg/ml test compound, read-out: Inhibition rate) was 0% and the inhibition at 0.2 µg/mL ([25]; Rattus norvegicus, T-cell, 0.20 μg/ml test compound, read-out: Inhibition rate) was 12.3%. The inhibition at 0.78 µg/mL ([25]; Rattus norvegicus, T-cell, 0.78 μg/ml test compound, read-out: Inhibition rate) was 47.6%, the inhibition at 3.1 µg/mL ([25]; Rattus norvegicus, T-cell, 3.1 μg/ml test compound, read-out: Inhibition rate) was 92.7% and the inhibition at 12.5 µg/mL ([25]; Rattus norvegicus, T-cell, 12.5 μg/ml test compound, read-out: Inhibition rate) was 94.1%. The inhibition at 50 µg/mL ([25]; Rattus norvegicus, T-cell, 50 μg/ml test compound, read-out: Inhibition rate) was 96.7%, the IC50 ([25]; Rattus norvegicus, T-cell) was 8.6 µg/mL (≈ 17.3 µM) and the “activity to inhibit the proliferation of the T cells (responder cell) in mixed lymphocyte culture reaction” value [25] was “have an activity to inhibit the reaction of proliferation of the T cells”. The MIC [26] was over 100 µg/mL.
